# Article PMC11873239, “A covalent chemical probe for Chikungunya nsP2 cysteine protease with antialphaviral activity and proteome-wide selectivity” (Scientific Reports, 2025)
# Columns and labels:
# CHIKV-nLuc = test: microbe, parasite or virus in culture; assay type: cell-based; conditions: Chikungunya virus, MRC5, 6 h, read-out: EC50 (CHIKV-nLuc replication)
# [1] = target: HEK293 cell lysate proteins (Homo sapiens, UniProt P05089); assay type: binding
# [2] = target: HEK293 cell lysate proteins (Homo sapiens, UniProt P04040); assay type: binding
# HEK293 cell lysate proteins (Homo sapiens, UniProt P04040), sequence (P04040 whole entry): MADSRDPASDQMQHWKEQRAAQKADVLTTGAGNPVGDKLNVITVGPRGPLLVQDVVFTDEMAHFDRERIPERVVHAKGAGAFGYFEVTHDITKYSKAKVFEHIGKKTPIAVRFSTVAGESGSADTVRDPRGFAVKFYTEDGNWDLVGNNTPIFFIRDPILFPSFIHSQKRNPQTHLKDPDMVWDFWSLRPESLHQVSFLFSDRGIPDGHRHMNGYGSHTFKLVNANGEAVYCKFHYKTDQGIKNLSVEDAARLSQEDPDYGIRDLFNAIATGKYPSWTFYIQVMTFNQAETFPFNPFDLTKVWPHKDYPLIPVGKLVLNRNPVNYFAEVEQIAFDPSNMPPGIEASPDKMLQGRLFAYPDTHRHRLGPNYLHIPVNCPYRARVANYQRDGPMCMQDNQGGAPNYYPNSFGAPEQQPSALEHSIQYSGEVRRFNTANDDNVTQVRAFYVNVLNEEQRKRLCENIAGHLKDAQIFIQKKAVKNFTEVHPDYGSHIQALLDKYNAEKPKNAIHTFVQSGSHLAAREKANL
# [3] = target: HEK293 cell lysate proteins (Homo sapiens, UniProt Q14684); assay type: binding
# [4] = target: HEK293 cell lysate proteins (Homo sapiens, UniProt P60709); assay type: binding
# [5] = target: HEK293 cell lysate proteins (Homo sapiens, UniProt Q8N1N4); assay type: binding
# [6] = target: HEK293 cell lysate proteins (Homo sapiens, UniProt P15924); assay type: binding
# [7] = target: HEK293 cell lysate proteins (Homo sapiens, UniProt P26358); assay type: binding
# [8] = target: HEK293 cell lysate proteins (Homo sapiens, UniProt P06702); assay type: binding
# [9] = target: HEK293 cell lysate proteins (Homo sapiens, UniProt Q15648); assay type: binding
# HEK293 cell lysate proteins (Homo sapiens, UniProt Q15648), sequence (Q15648 whole entry): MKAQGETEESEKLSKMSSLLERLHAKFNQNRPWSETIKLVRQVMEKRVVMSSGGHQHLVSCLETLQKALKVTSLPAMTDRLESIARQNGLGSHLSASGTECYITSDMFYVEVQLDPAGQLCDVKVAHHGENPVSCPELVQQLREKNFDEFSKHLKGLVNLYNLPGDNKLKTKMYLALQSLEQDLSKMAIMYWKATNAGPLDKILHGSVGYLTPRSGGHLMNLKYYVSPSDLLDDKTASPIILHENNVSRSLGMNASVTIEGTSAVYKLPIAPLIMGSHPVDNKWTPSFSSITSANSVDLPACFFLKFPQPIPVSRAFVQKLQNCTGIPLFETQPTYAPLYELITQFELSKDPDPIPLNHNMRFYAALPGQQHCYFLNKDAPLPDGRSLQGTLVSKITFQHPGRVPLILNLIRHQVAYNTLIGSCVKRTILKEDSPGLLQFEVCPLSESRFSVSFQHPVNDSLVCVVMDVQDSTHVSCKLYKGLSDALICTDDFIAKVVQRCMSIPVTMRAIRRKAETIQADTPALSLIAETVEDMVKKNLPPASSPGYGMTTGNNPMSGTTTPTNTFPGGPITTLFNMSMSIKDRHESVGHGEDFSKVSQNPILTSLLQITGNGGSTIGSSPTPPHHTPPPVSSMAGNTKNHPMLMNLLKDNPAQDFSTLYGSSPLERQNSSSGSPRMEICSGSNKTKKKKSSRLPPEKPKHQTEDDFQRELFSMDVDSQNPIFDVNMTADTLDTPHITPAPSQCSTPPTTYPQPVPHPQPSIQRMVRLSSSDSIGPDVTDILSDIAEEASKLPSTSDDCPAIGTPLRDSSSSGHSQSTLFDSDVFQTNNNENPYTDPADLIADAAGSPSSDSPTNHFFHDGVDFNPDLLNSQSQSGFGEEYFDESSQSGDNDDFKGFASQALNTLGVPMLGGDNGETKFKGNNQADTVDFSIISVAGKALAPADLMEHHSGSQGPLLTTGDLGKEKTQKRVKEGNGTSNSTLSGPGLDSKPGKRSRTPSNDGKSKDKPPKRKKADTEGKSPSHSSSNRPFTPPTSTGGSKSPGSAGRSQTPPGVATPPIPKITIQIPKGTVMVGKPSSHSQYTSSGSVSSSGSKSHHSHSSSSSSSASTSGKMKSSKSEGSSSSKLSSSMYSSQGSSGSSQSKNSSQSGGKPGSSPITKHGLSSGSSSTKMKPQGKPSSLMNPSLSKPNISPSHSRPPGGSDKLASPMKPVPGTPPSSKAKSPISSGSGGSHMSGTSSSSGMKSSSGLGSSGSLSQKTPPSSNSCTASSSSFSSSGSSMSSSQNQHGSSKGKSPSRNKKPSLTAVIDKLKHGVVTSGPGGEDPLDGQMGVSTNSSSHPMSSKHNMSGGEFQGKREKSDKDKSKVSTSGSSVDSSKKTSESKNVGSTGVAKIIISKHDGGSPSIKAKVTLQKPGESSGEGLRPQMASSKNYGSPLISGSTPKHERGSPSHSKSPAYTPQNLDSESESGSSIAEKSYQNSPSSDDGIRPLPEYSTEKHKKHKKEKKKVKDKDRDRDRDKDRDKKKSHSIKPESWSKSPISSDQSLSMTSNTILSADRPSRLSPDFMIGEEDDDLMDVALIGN
# [10] = target: HEK293 cell lysate proteins (Homo sapiens, UniProt Q52LG2); assay type: binding
# [11] = target: HEK293 cell lysate proteins (Homo sapiens, UniProt Q02413); assay type: binding
# [12] = target: HEK293 cell lysate proteins (Homo sapiens, UniProt P31944); assay type: binding
# HEK293 cell lysate proteins (Homo sapiens, UniProt P31944), sequence (P31944 6-242): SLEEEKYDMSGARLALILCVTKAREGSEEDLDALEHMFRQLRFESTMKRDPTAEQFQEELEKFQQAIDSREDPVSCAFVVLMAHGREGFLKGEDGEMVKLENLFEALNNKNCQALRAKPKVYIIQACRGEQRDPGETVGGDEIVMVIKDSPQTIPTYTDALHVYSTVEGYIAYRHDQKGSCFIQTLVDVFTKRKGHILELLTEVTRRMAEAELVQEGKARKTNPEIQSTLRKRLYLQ
# [13] = target: HEK293 cell lysate proteins (Homo sapiens, UniProt Q13428); assay type: binding
# HEK293 cell lysate proteins (Homo sapiens, UniProt Q13428), sequence (Q13428 whole entry): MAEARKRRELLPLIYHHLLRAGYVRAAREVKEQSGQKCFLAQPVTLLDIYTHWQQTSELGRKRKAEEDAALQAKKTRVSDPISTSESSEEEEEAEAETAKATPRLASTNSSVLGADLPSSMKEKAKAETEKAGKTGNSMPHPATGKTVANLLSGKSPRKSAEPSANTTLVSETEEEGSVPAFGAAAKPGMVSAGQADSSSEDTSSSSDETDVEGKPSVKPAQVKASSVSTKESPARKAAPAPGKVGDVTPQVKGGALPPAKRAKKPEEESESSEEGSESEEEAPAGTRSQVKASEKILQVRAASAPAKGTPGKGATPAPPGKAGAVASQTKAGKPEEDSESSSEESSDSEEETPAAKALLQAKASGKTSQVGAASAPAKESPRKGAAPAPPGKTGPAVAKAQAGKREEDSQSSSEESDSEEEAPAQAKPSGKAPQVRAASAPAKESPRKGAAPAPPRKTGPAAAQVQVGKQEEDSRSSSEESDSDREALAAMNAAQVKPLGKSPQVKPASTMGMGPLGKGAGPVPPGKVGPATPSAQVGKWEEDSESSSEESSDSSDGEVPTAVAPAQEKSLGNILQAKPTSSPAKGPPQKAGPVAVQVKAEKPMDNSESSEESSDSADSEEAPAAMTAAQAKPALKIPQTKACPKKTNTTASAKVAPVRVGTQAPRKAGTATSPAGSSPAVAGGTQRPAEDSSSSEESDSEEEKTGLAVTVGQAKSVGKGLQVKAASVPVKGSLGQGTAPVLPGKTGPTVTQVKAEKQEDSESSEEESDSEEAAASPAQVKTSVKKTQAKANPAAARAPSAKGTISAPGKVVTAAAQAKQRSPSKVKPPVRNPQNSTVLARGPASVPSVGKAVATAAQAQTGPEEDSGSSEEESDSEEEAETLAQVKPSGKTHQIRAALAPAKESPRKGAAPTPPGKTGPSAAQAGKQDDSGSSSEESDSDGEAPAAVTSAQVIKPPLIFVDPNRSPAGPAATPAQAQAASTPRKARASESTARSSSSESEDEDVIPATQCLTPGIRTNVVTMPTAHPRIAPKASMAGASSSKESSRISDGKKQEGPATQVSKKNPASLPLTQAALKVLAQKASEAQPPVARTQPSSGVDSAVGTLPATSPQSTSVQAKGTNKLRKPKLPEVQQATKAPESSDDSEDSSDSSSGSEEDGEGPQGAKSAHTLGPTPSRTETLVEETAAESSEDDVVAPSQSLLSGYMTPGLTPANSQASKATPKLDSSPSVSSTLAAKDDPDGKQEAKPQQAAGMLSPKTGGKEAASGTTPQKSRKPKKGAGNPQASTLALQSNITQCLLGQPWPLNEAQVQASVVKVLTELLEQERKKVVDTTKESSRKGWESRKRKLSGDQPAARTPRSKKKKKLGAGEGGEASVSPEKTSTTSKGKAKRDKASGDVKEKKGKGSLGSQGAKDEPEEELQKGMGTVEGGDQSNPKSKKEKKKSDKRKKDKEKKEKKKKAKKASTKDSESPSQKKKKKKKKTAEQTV
# [14] = target: HEK293 cell lysate proteins (Homo sapiens, UniProt O75342); assay type: binding
# [15] = target: HEK293 cell lysate proteins (Homo sapiens, UniProt P04406); assay type: binding
# HEK293 cell lysate proteins (Homo sapiens, UniProt P04406), sequence (P04406 whole entry): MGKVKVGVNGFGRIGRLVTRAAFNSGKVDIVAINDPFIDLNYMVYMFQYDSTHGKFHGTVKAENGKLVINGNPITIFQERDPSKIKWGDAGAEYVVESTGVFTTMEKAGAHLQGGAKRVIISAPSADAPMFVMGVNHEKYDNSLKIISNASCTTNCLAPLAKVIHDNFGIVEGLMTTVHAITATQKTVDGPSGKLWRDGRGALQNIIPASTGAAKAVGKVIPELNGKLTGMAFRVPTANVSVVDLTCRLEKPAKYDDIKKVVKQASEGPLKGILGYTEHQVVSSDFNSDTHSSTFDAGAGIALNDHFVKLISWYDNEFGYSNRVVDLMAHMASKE
# [16] = target: HEK293 cell lysate proteins (Homo sapiens, UniProt Q3KQU3); assay type: binding
# [17] = target: HEK293 cell lysate proteins (Homo sapiens, UniProt Q01469); assay type: binding
# [18] = target: HEK293 cell lysate proteins (Homo sapiens, UniProt Q96P63); assay type: binding
# [19] = target: HEK293 cell lysate proteins (Homo sapiens, UniProt P11142); assay type: binding
# [20] = target: HEK293 cell lysate proteins (Homo sapiens, UniProt P22531); assay type: binding
# [21] = target: HEK293 cell lysate proteins (Homo sapiens, UniProt P22528); assay type: binding
# [22] = target: HEK293 cell lysate proteins (Homo sapiens, UniProt A8K2U0); assay type: binding
# [23] = target: HEK293 cell lysate proteins (Homo sapiens, UniProt Q5T750); assay type: binding
# [24] = target: HEK293 cell lysate proteins (Homo sapiens, UniProt Q12872); assay type: binding
# [25] = target: HEK293 cell lysate proteins (Homo sapiens, UniProt P07339); assay type: binding
# [26] = target: HEK293 cell lysate proteins (Homo sapiens, UniProt P41252); assay type: binding
# [27] = target: HEK293 cell lysate proteins (Homo sapiens, UniProt Q9HCY8); assay type: binding
# [28] = target: HEK293 cell lysate proteins (Homo sapiens, UniProt P0DOX5); assay type: binding
# [29] = target: HEK293 cell lysate proteins (Homo sapiens, UniProt P02788); assay type: binding
# [30] = target: HEK293 cell lysate proteins (Homo sapiens, UniProt P11586); assay type: binding
# [31] = target: HEK293 cell lysate proteins (Homo sapiens, UniProt Q5T749); assay type: binding
# HEK293 cell lysate proteins (Homo sapiens, UniProt Q5T749), sequence (Q5T749 whole entry): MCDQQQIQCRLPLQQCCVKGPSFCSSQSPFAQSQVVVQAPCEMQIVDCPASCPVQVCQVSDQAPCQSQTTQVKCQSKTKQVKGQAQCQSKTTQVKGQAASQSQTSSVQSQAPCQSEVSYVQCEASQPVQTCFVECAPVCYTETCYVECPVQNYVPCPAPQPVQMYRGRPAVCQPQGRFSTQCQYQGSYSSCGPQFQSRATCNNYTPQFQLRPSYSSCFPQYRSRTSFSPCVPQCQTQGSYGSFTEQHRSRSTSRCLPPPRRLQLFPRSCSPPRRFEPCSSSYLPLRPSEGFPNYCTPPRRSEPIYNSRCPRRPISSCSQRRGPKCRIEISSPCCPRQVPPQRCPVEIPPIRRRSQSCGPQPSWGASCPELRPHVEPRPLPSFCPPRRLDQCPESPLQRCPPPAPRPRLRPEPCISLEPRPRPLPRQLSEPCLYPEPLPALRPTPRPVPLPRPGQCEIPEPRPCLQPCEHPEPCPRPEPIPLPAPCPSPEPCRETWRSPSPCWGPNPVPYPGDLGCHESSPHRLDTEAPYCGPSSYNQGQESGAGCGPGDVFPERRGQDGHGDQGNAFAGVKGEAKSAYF
# [32] = target: HEK293 cell lysate proteins (Homo sapiens, UniProt P25311); assay type: binding
# HEK293 cell lysate proteins (Homo sapiens, UniProt P05089), sequence (P05089 whole entry): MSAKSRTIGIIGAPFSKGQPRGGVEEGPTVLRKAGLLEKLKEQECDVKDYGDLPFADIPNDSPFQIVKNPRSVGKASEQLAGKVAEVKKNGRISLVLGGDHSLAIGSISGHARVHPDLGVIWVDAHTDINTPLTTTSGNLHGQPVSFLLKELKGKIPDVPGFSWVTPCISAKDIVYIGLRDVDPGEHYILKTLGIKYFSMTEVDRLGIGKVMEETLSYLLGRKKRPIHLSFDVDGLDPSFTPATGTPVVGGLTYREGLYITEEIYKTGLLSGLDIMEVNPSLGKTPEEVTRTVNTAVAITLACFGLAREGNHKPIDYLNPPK
smiles,measurement,setting,value
"C#CCOc1ccccc1-c1cc(C(=O)NC/C=C/S(C)(=O)=O)on1 [VS, (E)-N-(3-(methylsulfonyl)allyl)−3-(2-(prop-2-yn-1-yloxy)phenyl)isoxazole-5-carboxamide]",EC50,CHIKV-nLuc,33 nM
same,Log2 fold change,[1],1.79
same,Log2 fold change,[2],1.41
same,Log2 fold change,[3],-2.16
same,Log2 fold change,[4],1.54
same,Log2 fold change,[5],1.62
same,Log2 fold change,[6],2.05
same,Log2 fold change,[7],1.64
same,Log2 fold change,[8],1.63
same,Log2 fold change,[9],-1.21
same,Log2 fold change,[10],3.14
same,Log2 fold change,[11],1.36
same,Log2 fold change,[12],1.29
same,Log2 fold change,[13],1.02
same,Log2 fold change,[14],2.14
same,Log2 fold change,[15],1.78
same,Log2 fold change,[16],-2.07
same,Log2 fold change,[17],2.38
same,Log2 fold change,[18],1.71
same,Log2 fold change,[19],1.15
same,Log2 fold change,[20],2.37
same,Log2 fold change,[21],2.72
same,Log2 fold change,[22],1.10
same,Log2 fold change,[23],2.49
same,Log2 fold change,[24],-1.75
same,Log2 fold change,[25],1.67
same,Log2 fold change,[26],1.48
same,Log2 fold change,[27],1.98
same,Log2 fold change,[28],1.84
same,Log2 fold change,[29],1.10
same,Log2 fold change,[30],-1.66
same,Log2 fold change,[31],2.53
same,Log2 fold change,[32],1.43
